Results as given in patent publication US10774071B2, “PD-1/PD-L1 inhibitors” (Gilead Sciences, Inc., priority 2018, dated 2020).
Where two headings read alike, the source gives them in different places.

Assays:
PD-1/PD-L1 = PD-1/PD-L1 (Homo sapiens (Human), UniProt Q9NZQ7); assay: PD-1/PD-L1 biochemical protein-protein interaction assay (ALPHA); type: binding; conditions: read-out: IC50 PD-L1-PD1
PD-L1 = PD-L1 (Homo sapiens (Human), UniProt Q9NZQ7); assay: PD-L1/PD-L1 dimerization biochemical protein-protein interaction assay (ALPHA); type: binding; conditions: read-out: AC50 PDL1 Dimer 1 nM
Sequence of PD-L1 (Q9NZQ7 19-238): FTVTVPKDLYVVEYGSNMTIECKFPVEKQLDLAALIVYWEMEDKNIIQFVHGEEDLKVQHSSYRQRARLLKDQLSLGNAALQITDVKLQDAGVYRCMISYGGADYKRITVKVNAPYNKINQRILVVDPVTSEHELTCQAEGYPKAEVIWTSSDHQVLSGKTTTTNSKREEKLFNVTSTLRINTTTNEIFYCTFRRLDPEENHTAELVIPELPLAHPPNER
Sequence of PD-L1 (Q9NZQ7 19-238): as above

[1] = 0.3 nM His tagged PD-L1, 2.5 nM biotinylated Fc-PD-1, Table 3B
[2] = 0.5 nM His tagged PD-L1 and 0.5 nM FLAG tagged PD-L1, Table 4B
[3] = 0.3 nM His tagged PD-L1, 2.5 nM biotinylated Fc-PD-1, readings of 0.064 nM are equal to or less than 0.064 nM
[4] = 0.5 nM His tagged PD-L1 and 0.5 nM FLAG tagged PD-L1, Table 4A

Sequence of PD-1/PD-L1 (Q9NZQ7 19-238): as above

SMILES	IC50 (PD-1/PD-L1; [1]) [nM]	AC50 (PD-L1; [2]) [nM]	IC50 (PD-1/PD-L1; [3]) [nM]	AC50 (PD-L1; [4]) [nM]
CNC(=O)C1CCN(Cc2cc(Cl)c(O[C@H]3CCc4c(-c5cccc(-c6cnc(CNC[C@@H]7CCC(=O)N7)c(OC)n6)c5Cl)cccc43)nc2OC)C1 (some centres unmarked) [B-28]	0.088	26.9	–	–
COc1cc(-c2cccc(-c3cccc4c3CC[C@@H]4Oc3nc(OC)c(CN4CC5(C(=O)O)CCC4CC5)cc3C(F)(F)F)c2Cl)cc(F)c1CNC[C@@H]1CCC(=O)N1 [B-194]	0.064	4.54	–	–
COc1nc(-c2cccc(-c3cccc4c3CC[C@@H]4Oc3nc(OC)c(CN[C@H](C(=O)O)C4CC4)cc3C(F)(F)F)c2Cl)ccc1CN[C@H]1C[C@](C)(O)C1 [B-255]	0.064	7.89	–	–
COc1nc(-c2cccc(-c3cccc4c3CC[C@@H]4Nc3nc(OC)c(CN[C@@H](C)C(=O)O)nc3C(F)(F)F)c2Cl)ccc1CNC[C@@H]1CC(O)C(=O)N1 (some centres unmarked) [A-45]	–	–	≤ 0.064	5.86
COc1nc(-c2cccc(-c3cccc4c3CC[C@@H]4Oc3nc(OC)c(CN4CCC5CC4(C(=O)O)C5)cc3C(F)(F)F)c2Cl)ccc1CN1CC2(CCC(=O)N2)C1 [B-228]	0.064	6.43	–	–
COc1nc(-c2cccc(-c3cccc4c3CC[C@@H]4Oc3nc(OC)c(CN4CCC(C(=O)N=S(C)(N)=O)CC4)cc3Cl)c2Cl)ccc1CNC[C@@H]1CCC(=O)N1 (some centres unmarked) [B-158]	0.064	26.9	–	–
COc1nc(-c2cccc(-c3cccc4c3CC[C@@H]4Oc3nc(OC)c(CN4CC5(C(=O)O)CCC4CC5)cc3Cl)c2Cl)ccc1CN[C@H]1CCCC[C@H]1O [B-50]	0.064	26.1	–	–
COc1cc(-c2cccc(-c3cccc4c3CC[C@@H]4Oc3nc(OC)c(CN4CC[C@@H](C(=O)O)C4)cc3Cl)c2Cl)ccc1CNC[C@@H]1CCC(=O)N1 [B-41]	0.064	3.59	–	–
COc1nc(-c2cccc(-c3cccc4c3CC[C@@H]4Oc3nc(OC)c(CNC4(C(=O)O)CC4)cc3C(F)(F)F)c2Cl)ccc1CNC[C@H]1C[C@](C)(O)C1 [B-207]	0.064	11.9	–	–
CC[C@H](NCc1cc(C(F)(F)F)c(O[C@H]2CCc3c(-c4cccc(-c5ccc(CN[C@H]6C[C@](C)(O)C6)c(OC)n5)c4Cl)cccc32)nc1OC)C(=O)O [B-211]	0.064	9.21	–	–
COc1nc(O[C@H]2CCc3c(-c4cccc(-c5cc(C)c(CN6CC[C@@H](C(=O)O)C6)c(OC)n5)c4Cl)cccc32)c(Cl)cc1CNC[C@@H]1CCC(=O)N1 [B-133]	0.064	99.1	–	–
COc1nc(-c2cccc(-c3cccc4c3CC[C@@H]4Oc3nc(OC)c(CNC4(C(=O)O)CC4)cc3C(F)(F)F)c2Cl)ccc1CN1CC2(CNC(=O)C2)C1 [B-169]	0.064	11.1	–	–
COc1nc(-c2cccc(-c3cccc4c3CC[C@@H]4Oc3nc(OC)c(CN4CC[C@@H](C(=O)O)C4)nc3Cl)c2Cl)ccc1CNC[C@@H]1CCC(=O)N1 [B-154]	0.064	31.5	–	–
COc1cc(-c2cccc(-c3cccc4c3CC[C@@H]4Oc3nc(OC)c(CNC4(C(=O)O)CC4)cc3C(F)(F)F)c2Cl)ccc1CNC[C@@H]1CCC(=O)N1 [B-122]	0.064	2.65	–	–
COc1nc(O[C@H]2CCc3c(-c4cccc(-c5cc(F)c(CNC[C@@H]6CCC(=O)N6)c(OC)n5)c4Cl)cccc32)c(C(F)(F)F)cc1CN1CC2(C(=O)O)CCC1CC2 [B-190]	0.064	8.98	–	–
COc1nc(-c2cccc(-c3cccc4c3CC[C@@H]4Oc3nc(OC)c(CN4CC(C)(O)C4)cc3Cl)c2Cl)ccc1CNC[C@@H]1CCC(=O)N1 [B-102]	0.146	80.6	–	–
COc1nc(-c2cccc(-c3cccc4c3CC[C@@H]4Oc3nc(OCc4ccc(-n5cccn5)nc4)c(CN4CC5(C(=O)O)CCC4CC5)cc3Cl)c2Cl)ccc1CNC[C@@H]1CCC(=O)N1 [B-56]	0.189	41	–	–
COc1nc(-c2cccc(-c3cccc4c3CC[C@@H]4Oc3nc(OC)c(CN(C)CC(=O)O)cc3Cl)c2Cl)ccc1CNC[C@@H]1CCC(=O)N1 [B-173]	0.064	9.94	–	–

Further lines, results first:

IC50 (PD-1/PD-L1; [1]) [nM]	AC50 (PD-L1; [2]) [nM]	IC50 (PD-1/PD-L1; [3]) [nM]	AC50 (PD-L1; [4]) [nM]	SMILES
0.064	2.2	–	–	COc1nc(-c2cccc(-c3cccc4c3CC[C@@H]4Oc3nc(OC)c(CNC[C@H]4C[C@H](O)C4)cc3C(F)(F)F)c2Cl)ccc1CNC[C@@H]1CCC(=O)N1 [B-262]
0.064	7.97	–	–	COc1nc(-c2cccc(-c3cccc4c3CC[C@@H]4Oc3nc(OC)c(CN4CC5CCC4C5C(=O)O)cc3Cl)c2Cl)ccc1CNC[C@@H]1CCC(=O)N1 (some centres unmarked) [B-174]
0.064	3.02	–	–	CC[C@](C)(NCc1cc(C(F)(F)F)c(O[C@H]2CCc3c(-c4cccc(-c5ccc(CNC[C@@H]6CCC(=O)N6)c(OC)n5)c4Cl)cccc32)nc1OC)C(=O)O [B-236]
0.064	18.4	–	–	COc1nc(-c2cccc(-c3cccc4c3CC[C@@H]4Oc3nc(OC)c(CN4CCC5(C(=O)O)CC45)cc3Cl)c2Cl)ccc1CNC[C@@H]1CCC(=O)N1 (some centres unmarked) [B-26]
–	–	≤ 0.064	13.9	COc1nc(-c2cccc(-c3cccc4c3CC[C@@H]4Nc3nc(OC)c(CN4CC[C@H](C(=O)O)C4)cc3C(F)(F)F)c2Cl)ccc1CNC[C@@H]1CCC(=O)N1 [A-3]
–	–	0.072	81.8	COc1nc(-c2cccc(-c3cccc4c3CC[C@@H]4Nc3nc(OC)c(CNCCC(=O)O)cc3C(F)(F)F)c2Cl)ccc1CN[C@H]1C[C@](C)(O)C1 [A-89]
0.064	12.3	–	–	COc1nc(O[C@H]2CCc3c(-c4cccc(-c5cc(F)c(CNC[C@@H]6CCC(=O)N6)c(OC)n5)c4Cl)cccc32)c(C(F)(F)F)cc1CN1CC[C@@H](C(=O)O)C1 [B-191]
–	–	≤ 0.064	5.57	COc1nc(N[C@H]2CCc3c(-c4cccc(-c5ccc(CNC[C@@H]6CCC(=O)N6)c(OCC#N)n5)c4Cl)cccc32)c(C(F)(F)F)cc1CNC1(C(=O)O)CC1 [A-29]
0.064	0.727	–	–	COc1nc(-c2cccc(-c3cccc4c3CC[C@@H]4Oc3nc(OC)c(CN4CC5CCC4(C(=O)O)CC5)cc3C(F)(F)F)c2Cl)ccc1CNC[C@@H]1CCC(=O)N1 [B-134]
–	–	0.14	84.9	COC(=O)C12CCC(CC1)N(Cc1nc(C(F)(F)F)c(N[C@H]3CCc4c(-c5cccc(-c6ccc(CNC[C@@H]7CCC(=O)N7)c(OC)n6)c5Cl)cccc43)nc1OC)C2 [A-82]
–	–	≤ 0.064	21.4	CCC1C(C(=O)O)CCN1Cc1cc(C(F)(F)F)c(N[C@H]2CCc3c(-c4cccc(-c5ccc(CNC[C@@H]6CCC(=O)N6)c(OC)n5)c4Cl)cccc32)nc1OC (some centres unmarked) [A-79]
–	–	≤ 0.064	40.2	COc1nc(-c2cccc(-c3cccc4c3CC[C@@H]4Nc3nc(OC)c(CNCC(N)=O)nc3C(F)(F)F)c2Cl)ccc1CNC[C@@H]1CCC(=O)N1 [A-103]
0.064	5.21	–	–	COc1nc(-c2cccc(-c3cccc4c3CC[C@@H]4Oc3nc(OC)c(CN4CC5(C(=O)O)CCC4CC5)cc3C(F)(F)F)c2Cl)ccc1CNC[C@@H]1CC(O)C(=O)N1 (some centres unmarked) [B-203]
0.064	21.5	–	–	COc1nc(-c2cccc(-c3cccc4c3CC[C@@H]4Oc3nc(OC)c(CN4CCC(C)(C(=O)O)CC4)cc3Cl)c2Cl)ccc1CNC[C@@H]1CCC(=O)N1 [B-178]
–	–	≤ 0.064	26.1	COc1nc(-c2cccc(-c3cccc4c3CC[C@@H]4Nc3nc(OC)c(CN4CC[C@@H](C(=O)O)C4)nc3C(F)(F)F)c2Cl)ccc1CNC[C@@H]1CCC(=O)N1 [A-19]
0.064	7.26	–	–	COc1nc(-c2cccc(-c3cccc4c3CC[C@@H]4Oc3nc(OC)c(CNCCC(=O)O)cc3C(F)(F)F)c2Cl)ccc1CNC[C@@H]1CCC(=O)N1 [B-267]
